Results taken from article PMC9530166, “Allosteric regulation of glycogen breakdown by the second messenger cyclic di-GMP” (Nature Communications, 2022).

Assays:
His6-Vnz25270 = experiment: nanoDSF thermal shift assay, GlgX paralog Vnz25270; assay type: binding, Streptomyces venezuelae; details: 10 µM His6-Vnz25270, 1 mM c-di-GMP
Protocol: For label-free thermal shift assay experiments, 10 μM purified protein in 25 mM Tris pH 8, 150 mM NaCl, 2.5% (v/v) glycerol, and 5 mM MgCl2 was incubated without or with (1 mM) of nonlabeled c-di-GMP or c-di-AMP, respectively, at rt for 10 min. Reactions were subsequently analyzed in a Tycho NT.6 (NanoTemper Technologies) device with a 30 K/min thermal ramp and the internal fluorescence at 330 and 350 nm was recorded. Data analysis and calculation of derivatives was done using the internal evaluation features of the Tycho instrument.
(a) 15 µg of purified E. coli His6-GlgX
167 or His6-Vnz25270, respectively, were mixed with 0.5 µl of [32P]-c-di-GMP (Hartmann Analytic
168 GmbH, Braunschweig) in binding buffer (25 mM Tris pH 8.0, 150 mM NaCl, 2.5% (v/v) glycerol
169 and 5 mM MgCl2). 10 µL of the reactions were spotted on the same nitrocellulose membrane (Roth),
170 air dried for 10 min and analyzed by phosphorimaging. (b, c) 10 µM purified His6-Vnz25270 (b) or
171 His6-GlgXE.coli (c) in 25 mM Tris pH 8.0, 150 mM NaCl, 2.5% (v/v) glycerol and 5 mM MgCl2 were
172 incubated without or with (1 mM) c-di-GMP. Reactions were analyzed in a Tycho NT.6
173 (NanoTemper Technologies) device.
(1 picture or pasted object on this page, not shown here)

GlgXE47A-R49A = experiment: Fluorescence polarization binding, GlgXE47A-R49A; design: species or system Streptomyces venezuelae
Excerpt: Fig. 5 Structure of the S. venezuelae GlgX-c-di-GMP complex. a Ribbon diagram of the S. venezuelae GlgX-c-di-GMP complex with one GlgX subunit colored cyan and the other salmon. Shown as sticks are the c-di-GMP molecules bound at each end of the antiparallel dimer. […] There was clear density for each c-di-GMP molecule. b Close up of the GlgX-c-di-GMP binding interaction. Key residues mediating contacts to the c-di-GMP are shown as sticks and labeled. Hydrogen bonds from GlgX residues that specify binding to the guanine are indicated by yellow dashed lines. c Fluorescence polarization (FP) binding isotherm showing interaction of GlgX, GlgXE47A-R49A and GlgXR438A-R579A for F-c-di-GMP in red, green and blue respectively. Also shown is the binding isotherm for GlgX binding to F-c-di-AMP in black. […] The y-axis and x-axis are millipolarization (mP) units and GlgX concentration (μM), respectively. Shown are representative binding curves for each. The experiments were performed in technical triplicates and the error between measurements reported. […]
Thus, we used this F-tagged c-di-GMP in fluorescence polarization (FP) studies to quantify the interaction between GlgX and c-di-GMP. […] To ensure that the presence of the fluorescent tag was not impacting the GlgX interaction with c-di-GMP we used microscale thermophoresis (MST) to quantify c-di-GMP binding to GlgX. […]

Nc1nc2c(ncn2[C@@H]2O[C@@H]3CO[P@](=O)(O)O[C@H]4[C@@H](O)[C@H](n5cnc6c(=O)[nH]c(N)nc65)O[C@@H]4CO[P@](=O)(O)O[C@H]3[C@H]2O)c(=O)[nH]1 [c-di-GMP, bis-(3′−5′)-cyclic diguanosine monophosphate] was tested, and the “interaction with c-di-GMP by nanoDSF” value (His6-Vnz25270) was “did not detect any interactions” and the “binding to mutant in FP” value (GlgXE47A-R49A) was “weak, nonsaturable binding”.
